Experimental data reported in patent US20080221045A1, “Hepatic Function-Improving Agent” (Kabushiki Kaisha Hayashibara Seibutsu Kagaku Kenkyujo, priority 2004, published 2008).

Key:
hepatic functions = assay: Administration test of α-glucosyl-hesperidin on hamsters (cholesterol-supplemented feed), serum GOT and GPT; assay type: in vivo, golden hamsters; conditions: for Serum GOT / Serum GPT: 0.25 mmole/kg/day by stomach sonde, 5 weeks, last 3 weeks feed with 1% cholesterol, average ± SD; for Serum GOT: distilled water control 171 ± 46, before 46 ± 8; for Serum GPT: distilled water control 418 ± 106, before 81 ± 18; for serum levels of GOT and GPT compared with the distilled water group (control 1): 0.25 mmole/kg/day
Experimental: The animal experiment using hamsters was performed to investigate the influences of the intake of α-glucosyl-hesperidin on hepatic functions.
A group of five golden hamsters of five weeks old was fed on liberal amount of “NMF Lab Animal Diet Powder” (produced by Oriental Yeast Co., Ltd.) with the administration of “αG-HESPERIDIN PS®” (a powdery α-glucosyl-hesperidin containing 82.8% of α-glucosyl-hesperidin, commercialized by Hayashibara Shoji, Inc.) dissolved in distilled water. α-Glucosyl-hesperidin was administered to the hamsters through a stomach sonde at a dose of 0.25 mmole (193 mg)/kg/body weight every day. After two-week administrations of α-glucosyl-hesperidin, the hamsters were fed for additional three weeks in the same way as described above except that their feed was supplemented with 1% by weight of cholesterol. At four hours after the final administrations, the hamsters were anesthetized and under went laparotomy, and their large-venous blood samples were taken. After the separation of the hamsters' serums by a conventional method, the levels of GOT and GPT were measured. As the control 1, another group was fed and its blood samples were taken in the same way except that distilled water instead of α-glucosyl-hesperidin was administered to the hamsters. As the control 2, a third group was fed and their blood samples were taken in the same way except that hesperidin (a regent grade specimen, commercialized by Wako Pure Chemical Industries, Ltd.) instead of α-glucosyl-hesperidin suspended in distilled water was administered to the hamsters at a dose of 0.25 mmole (153 mg)/kg/body weight. The other group was fed on liberal amount of “NMF Lab Animal Diet Powder” with no administration of the test articles and their blood samples were taken in the same way as describe above, and the serum levels of GOT and GPT were measured to obtain the data before the administrations.

[1] = mammals including humans with an elevated TG level; Yamada et al. 2003, Miwa et al. 2004; cited from earlier work

SMILES | Serum GOT (hepatic functions) | Serum GPT (hepatic functions) | serum levels of GOT and GPT compared with the distilled water group (control 1) (hepatic functions; hamsters) | effect for keeping hepatic-function indexes at a lower level, compared with hesperidin (hepatic functions; hamsters, equal molar dose 0.25 mmole/kg/day) | effect on blood triglyceride (TG) level [1]
COc1ccc([C@@H]2CC(=O)c3c(O)cc(O[C@@H]4O[C@H](CO[C@@H]5O[C@@H](C)[C@H](O)[C@@H](O)[C@H]5O)[C@@H](O)[C@H](O)[C@H]4O)cc3O2)cc1O [Hesperidin, hesperidin, reference compound] | 101 ± 30 IU/L | 298 ± 76 IU/L | kept lower |  | 
COc1ccc(C2CC(=O)c3c(O)cc(O[C@@H]4OC(CO[C@@H]5OC(C)[C@H](O)C(O)C5O)[C@@H](COC[C@H]5OC(CO)[C@@H](O)C(O)C5O)C(O)C4O)cc3O2)cc1O (stereo partly drawn) [α-Glucosyl-hesperidin, α-glucosyl-hesperidin] | 66 ± 44 IU/L | 226 ± 74 IU/L | kept lower | greater effect than that of hesperidin | marked effect of reducing blood triglyceride
